Results published in patent US6365135B1, “Use of amino phenol amide derivatives as depigmentation agents” (L'Oreal, priority 1997, dated 2002).

Tested on: co-culture of keratinocytes and melanocytes
Assay: Depigmenting activity test: inhibition of melanogenesis on a co-culture of keratinocytes and melanocytes
Format: cell-based
Conditions: for Class (maximum depigmenting activity): inhibition of melanogenesis relative to the control; for IC50: co-culture of keratinocytes and melanocytes, read-out: IC50 (concentration for which a 50% inhibition of melanogenesis is observed)
Experimental: This test corresponds to the one described in patent FR 2,734,825 filed by the Applicant, as well as in the article by R. Schmidt, P. Krien and M. Régnier, Anal. Biochem., 235 (2), 113-18, (1996). This test is thus carried out on a co-culture of keratinocytes and melanocytes.
For each test compound, the IC50 value, which corresponds to the micromolar concentration (μM) for which a 50% inhibition of melanogenesis is observed, is determined.
Moreover, a class is given to each of these compounds as regards their maximum depigmenting activity:
class 1: 10 to 30% inhibition of melanogenesis relative to the control (same experiment without test compound);
class 2: 30 to 60% inhibition of melanogenesis relative to the control (same experiment without test compound);
class 3: 60 to 100% inhibition of melanogenesis relative to the control (same experiment without test compound).

| Structure (SMILES) | Class (maximum depigmenting activity) (500 μM) | IC50 | Class (maximum depigmenting activity) (100 μM) |
| --- | --- | --- | --- |
| O=c1cc(CO)occ1O [Kojic acid] | 2 to 500 μM (class 2: 30 to 60% inhibition of melanogenesis relative to the control (same experiment without test compound)) | 500 µM |  |
| CCCCCCCCCCCC(=O)Oc1ccc(NC(C)=O)cc1 [Lauroyl [4-(N-acetylamino)] phenol, Lauroyl [4-(N-acetylamino)]phenol] |  | > 100 µM | 2 to 100 μM (class 2: 30 to 60% inhibition of melanogenesis relative to the control (same experiment without test compound)) |
